In the data set the test system is rat JNK2 mRNA. In words: Northern assay of rat JNK2 (p54a) mRNA in A10 aortic smooth muscle cells. Format: cell-based. More on the design: inhibition of rat JNK2 mRNA levels / % INHIBITION: concentration or dose not given beside the values. The note with it: for % INHIBITION / % EXPRESSION: rat JNK2 (p54a) mRNA in A10 cells; for % EXPRESSION: relative to LIPOFECTIN-only control; for inhibition of rat JNK2 mRNA levels: A10 cells (Table 22). Here is the method:
In order to study the role of JNK proteins in animal models, oligonucleotides targeted to the genes encoding JNK1, JNK2 and JNK3 of Rattus norvegicus were prepared. These oligonucleotides are 2′-methoxyethoxy, phosphodiester/2′-hydroxyl, phosphorothioate/2′-methoxyethoxy, phosphodiester “gapmers” in which every cytosine residue is 5-methylcytosine (m5c). These antisense compounds were synthesized according to the methods of the disclosure. Certain of these oligonucleotides are additionally specifically hybridizable to JNK genes from other species as indicated herein. The oligonucleotides described in this Example were tested for their ability to modulate rat JNK mRNA levels essentially according to the methods described in the preceding Examples, with the exceptions that the cell line used was rat A10 aortic smooth muscle cells (ATCC No. ATCC CRL-1476) and the probes used were specific for rat JNK1, JNK2 or JNK3 (see infra). A10 cells were grown and treated with oligonucleotides essentially as described by (Cioffi et al. Mol. Pharmacol., 1997, 51, 383).
These antisense compounds were tested for their ability to modulate levels of p54? (JNK1) and p54a (JNK2) mRNA in A10 cells via Northern assays. Due to the high degree of sequence identity between the human and rat genes, radiolabeled human JNK1 (Example 3) and JNK2 (Example 4) cDNAs functioned as specific probes for the rat homologs.
These antisense compounds were tested for their ability to modulate levels of p54a (JNK2) mRNA in A10 cells using the radiolabeled human JNK2 cDNA as a probe as described supra. Oligonucleotides showing levels of inhibition from ≧ about 60% to about 100% of rat JNK2 mRNA levels include ISIS Nos. 18254, 18255, 18257, 18258, 18259, 18260 and 18265 (SEQ ID NOS: 125, 126, 128, 129, 130, 131 and 136, respectively). These oligonucleotides are preferred embodiments of the invention for modulating rat JNK2 expression. […] These oligonucleotides are thus more preferred embodiments of the invention for modulating rat JNK2 expression. ISIS 18259 (SEQ ID NO: 130) was chosen for use in further studies (infra).

Strand notation (5' to 3'): a small letter for the sugar, then the base; units joined by * are phosphorothioate-linked, units joined directly phosphodiester-linked; [ ] holds rarer units or linkages, { } end groups; capitals alone tell only the bases. e = 2'-O-(2-methoxyethyl) (MOE); [5mC] = 5-methylcytosine; d = 2'-deoxy (DNA)

As to “10260 (antisense eAeTe[5mC]eTeG*d[5mC]*dG*dA*dG*dG*dT*dT*dT*d[5mC]*dA*eTe[5mC]eGeGe[5mC]) [compound 10260]”, the “% INHIBITION” value came out at 59% and the “% EXPRESSION” value amounted to 41%.

Regarding “18254 (antisense eTe[5mC]eAeTeG*dA*dT*dG*dT*dA*dG*dT*dG*dT*d[5mC]*eAeTeAe[5mC]eA) [compound 18254]”, the “% INHIBITION” value is recorded as 80% and the “% EXPRESSION” value stood at 20%.

Consider “18255 (antisense eTeGeTeGeG*dT*dG*dT*dG*dA*dA*d[5mC]*dA*d[5mC]*dA*eTeTeTeAeA) [compound 18255]”, for which the “% INHIBITION” value is 79% and the “% EXPRESSION” value stood at 21%.

For the substance “18256 (antisense e[5mC]e[5mC]eAeTeA*dT*dG*dA*dA*dT*dA*dA*d[5mC]*d[5mC]*dT*eGeAe[5mC]eAeT) [compound 18256]”, the “% INHIBITION” value is recorded as 20% and the “% EXPRESSION” value is 80%.

For “18257 (antisense eGeAeTeAeT*d[5mC]*dA*dA*d[5mC]*dA*dT*dT*d[5mC]*dT*d[5mC]*e[5mC]eTeTeGeT) [compound 18257]”, the “inhibition of rat JNK2 mRNA levels” value is reported as at least 60%, the “% INHIBITION” value is listed as 68% and the “% EXPRESSION” value was determined as 32%.

“18258 (antisense eGe[5mC]eTeTe[5mC]*dG*dT*d[5mC]*d[5mC]*dA*d[5mC]*dA*dG*dA*dG*eAeTe[5mC]e[5mC]eG) [compound 18258]”: the “% INHIBITION” value was 81% and the “% EXPRESSION” value stood at 19%.

For the substance “18260 (antisense eAeTe[5mC]eTeG*d[5mC]*dG*dA*dG*dG*dT*dT*dT*d[5mC]*dA*eTe[5mC]eGeGe[5mC]) [compound 18260]”, the “inhibition of rat JNK2 mRNA levels” value is at least 60%.

Take “18261 (antisense e[5mC]e[5mC]eAe[5mC]e[5mC]*dA*dG*d[5mC]*dT*d[5mC]*d[5mC]*d[5mC]*dA*dT*dG*eTeGe[5mC]eTe[5mC]) [compound 18261]”: the “% INHIBITION” value is given as 53% and the “% EXPRESSION” value was 47%.

With “18262 (antisense e[5mC]eAeGeTeT*dA*d[5mC]*dA*d[5mC]*dA*dT*dG*dA*dT*d[5mC]*eTeGeTe[5mC]eA) [compound 18262]”, the “% INHIBITION” value is on record as 50% and the “% EXPRESSION” value amounted to 50%.

Regarding “18263 (antisense eAeAeGeAeG*dG*dA*dT*dT*dA*dA*dG*dA*dG*dA*eTeTeAeTeT) [compound 18263]”, the “% INHIBITION” value is 37% and the “% EXPRESSION” value was 63%.

On to “18264 (DNA eAeGe[5mC]eAeG*dA*dG*dT*dG*dA*dA*dA*dT*dA*d[5mC]*eAeAe[5mC]eTeT; antisense) [compound 18264]”, for which the “% INHIBITION” value came out at 52% and the “% EXPRESSION” value stood at 48%.

As to “18265 (DNA eTeGeTe[5mC]eA*dG*d[5mC]*dT*d[5mC]*dT*dA*d[5mC]*dA*dT*dT*eAeGeGe[5mC]eA; antisense) [compound 18265]”, the “inhibition of rat JNK2 mRNA levels” value was at least 60%, the “% INHIBITION” value was 62% and the “% EXPRESSION” value was found to be 38%.

Consider “18266 (DNA eAeGeTeAeA*dG*d[5mC]*d[5mC]*d[5mC]*dG*dG*dT*d[5mC]*dT*d[5mC]*e[5mC]eTeAeAeG; antisense) [compound 18266]”, for which the “% INHIBITION” value worked out at 34% and the “% EXPRESSION” value came out at 66%.

For the substance “18267 (DNA eAeAeAeTeG*dG*dA*dA*dA*dA*dG*dG*dA*d[5mC]*dA*eGe[5mC]eAeGe[5mC]; antisense) [compound 18267]”, the “% INHIBITION” value was determined as 16% and the “% EXPRESSION” value amounted to 84%.

(Values after patent US20040029823A1, “Antisense oligonucleotide compositions and methods for the modulation of JNK proteins” (priority 1997, published 2004).)
